From patent US6541509B2 (priority 2000, dated 2003)
Where two headings read alike, the source gives them in different places.

What was measured:
J7-T3-1.6 = assay: cells; assay type: cell-based, mouse; details: for Fold resistance (ratio of IC50 J7-T3-1.6 to J774.2): after 72 h
Method: (§1) The drug-sensitive mouse macrophage-like cell line, J774.2, and its Taxol-resistant cell line, J7-T3-1.6, were maintained as previously described. […] Drug-sensitive and vinblastine-resistant human ovarian carcinoma cell lines, SKOV3 and SKVLB, were obtained from Dr. V. Ling, and were maintained as previously described. Both J7-T3-1.6 and SKVLB cells overexpress P-glycoprotein. SKVLB cells were grown in the presence of 1 μM vinblastine. The Taxol-resistant human non-small-cell lung carcinoma cell line, A549-T12, was derived from the drug-sensitive A549 cell line; both cell lines were maintained as previously described.
(§2) For the A549 cell lines, cells were seeded at a density of 1×10^4 cells/mL (A549) or 3×10^4 cells/mL (A549-T12), in triplicate, 6-well plates, and allowed to attach for 24 h. […] The SKOV3 and SKVLB cell lines were assayed in a similar manner. Cells were seeded in triplicate, at a density of 6×10^3 cells/mL (SKOV3) or 12×10^3 cells/mL (SKVLB), in 6-well plates, and incubated with a drug for 6 days. […] J774.2 and J7-T3-1.6 cells were plated at a density of 2×10^4 cells/well, in 96-well plates, and allowed to attach overnight. Serial dilutions of each drug were performed, and the cells were incubated for 72 h. The IC50 was determined using the CellTiter 96™ AQueous nonradioactive cell proliferation assay (Promega, Madison, Wis.), which correlates with the number of live cells. Different methods for determining IC50 values were used, depending on the most accurate method for each particular set of cell lines.

J774.2 = assay: cells; assay type: cell-based, mouse; details: Mus musculus; J774.2, 72 h, mean ± SE; read-out: IC50 (drug concentration that inhibits cell division by 50%)
Method: as §1, §2

A549-T12 = assay: cells; assay type: cell-based, human; details: for Fold resistance (ratio of IC50 A549-T12 to A549): 72 h
Method: as §1, §2

A549 = assay: cells; assay type: cell-based, human; details: A549, 72 h, mean ± SE
Method: as §1, §2

SKOV3 = assay: cells; assay type: cell-based, human; details: SKOV3, 6 days, mean ± SE
Method: as §1, §2

SKVLB = assay: cells; assay type: cell-based, human; details: for Fold resistance (ratio of IC50, SKVLB and SKOV3): after 6 days
Method: as §1, §2

A549-T12 cells [1] = assay: Drug combination assay (colorimetric proliferation assay), Taxol titrated with test drug; assay type: cell-based, human; details: 72 h
Method: For the drug combination assay, the cells were analyzed after 72 h using a cell proliferation assay, as described below. A: cytotoxicity curves of A549-T12 cells in the absence of Taxol or in the presence of Taxol (in various concentrations), in combination with a range of discodermolide concentrations; B-D: cytotoxicity curves of A549-T12 cells in the absence or presence of 2 nM Taxol, in combination with eleutherobin or the epothilones. —⬭—: no Taxol; ---⬬----: 2 nM Taxol.
For the drug combination assay, A549-T12 cells were seeded in triplicate, at a density of 4×10^4 cells/mL, in 96-well plates, in the absence of Taxol or in the presence of various concentrations of Taxol, in combination with serial dilutions of each test drug. After a 72-h incubation, the plates were assayed using the colorimetric proliferation assay. In order to sustain the growth of A549-T12 cells in the absence of Taxol, cells were seeded at the higher densities described above.

A549-T12 cells [2] = assay type: cell-based, human; details: 48 h
Method: A549-T12 cells were grown on cover slips and treated with the different compounds for 48 h. Cells were then permeabilized, fixed, and incubated with an α-tubulin antibody, as described below.
A549-T12 cells, which were grown to subconfluency on glass cover slips in the absence of drug or in the presence of different drugs at varying concentrations (FIG. 4), were prepared for immunofluorescence microscopy as previously described, with the following modifications: (a) nonspecific binding was blocked using 10% normal goat serum in PBS for 30 min at 37° C.; (b) cells were incubated with a monoclonal antibody to α-tubulin (Sigma; 1:100 dilution; 5% normal goat serum in PBS), followed by a Cy3-conjugated anti-mouse IgG secondary antibody (Amersham, Arlington Heights, Ill.; 1:1000 dilution); and (c) slides were analyzed using the Zeiss Axioskop microscope (rhodamine filter) at 63× magnification.

A549-T12 cells [3] = assay type: cell-based, human
Method: Cells were incubated with the different agents for 48 h, fixed, stained with propidium iodide, and analyzed by flow cytometry, as described below.
For the drug substitution experiments, A549-T12 cells were seeded at a density of 3×10^4 cells/mL in 75-cm^2 flasks, and treated with various drugs at the indicated concentrations (FIG. 5). After 48 h, both adherent and nonadherent cells were harvested, fixed in 70% ethanol for at least 20 min, permeabilized with 0.1% Triton X-100 in PBS for 3 min, and stained for 30 min at 37° C. with 10 μg/mL of propidium iodide (Sigma) in a PBS solution containing 1 μg/mL of RNase A (Boehringer Mannheim, Indianapolis, Ind.). Cell-cycle analysis was performed using the Becton Dickinson FACScan and the CellQuest program. […] The cells then were prepared as described above.

P-glycoprotein = assay: Steady-state accumulation of [3H]Taxol; assay type: cell-based; details: Taxol-resistant murine cell line; data not shown
microtubules = assay: In vitro microtubule polymerization assay; assay type: biochemical; details: in the absence of GTP
[4] = literature [13], [16]; discodermolide value predicted; cited from earlier work

## C=C/C=C\[C@H](C)[C@H](OC(N)=O)[C@@H](C)[C@H](O)[C@@H](C)C/C(C)=C\[C@H](C)[C@@H](O)[C@@H](C)/C=C\[C@@H](O)C[C@@H]1OC(=O)[C@H](C)[C@@H](O)[C@H]1C [Disco, discodermolide]
J7-T3-1.6; Mus musculus, J7-T3-1.6, 72 h, mean ± SE, read-out: IC50 (drug concentration that inhibits cell division by 50%)
  IC50: 1050 nM
J7-T3-1.6
  Fold resistance (ratio of IC50 J7-T3-1.6 to J774.2): 29.2 fold
J7-T3-1.6; listed as discodermolide
  Fold resistance (ratio of IC50 J7-T3-1.6 to J774.2): low resistance
J774.2
  IC50: 36 ± 5.5 nM
A549-T12
  Fold resistance (ratio of IC50 A549-T12 to A549): 0.8 fold
A549-T12; listed as discodermolide
  Fold resistance (ratio of IC50 A549-T12 to A549): no cross-resistance
A549-T12; Homo sapiens, A549-T12, 72 h, cells maintained in 2 nM Taxol, mean ± SE, read-out: IC50 (drug concentration that inhibits cell division by 50%)
  IC50: 6.5 ± 2.4 nM
A549
  IC50 (drug concentration that inhibits cell division by 50%): comparable activities
A549; Homo sapiens, read-out: IC50 (drug concentration that inhibits cell division by 50%)
  IC50: 8.1 ± 0.14 nM
SKOV3; Homo sapiens, SK-OV-3, 144 h, read-out: IC50 (drug concentration that inhibits cell division by 50%)
  IC50: 9.7 ± 0.3 nM
SKOV3
  IC50 (drug concentration that inhibits cell division by 50%): decreased but similar responses
SKVLB; Homo sapiens, Ovarian carcinoma cell, 144 h, SKVLB, 6 days, mean ± SE, read-out: IC50 (drug concentration that inhibits cell division by 50%)
  IC50: 575 ± 233 nM
SKVLB
  Fold resistance (ratio of IC50, SKVLB and SKOV3): 59.3 fold
SKVLB; listed as discodermolide
  Fold resistance (ratio of IC50, SKVLB and SKOV3): low-level cross-resistance
A549-T12 cells [1]; Taxol titrated with a range of discodermolide concentrations
  Taxol concentration at which the potency of discodermolide was maximal: 2 nM
A549-T12 cells [1]; absence vs presence of 2 nM Taxol
  Loss of sensitivity of A549-T12 cells to the drug in the absence of 2 nM Taxol: 20 fold
A549-T12 cells [2]
  Concentration at which microtubules became arranged in bundle-like formations at the periphery of the cell: ≥ 12 nM
A549-T12 cells [2]; concentrations as in FIG. 4
  Microtubule cytoskeleton / ability to substitute for Taxol: Neither discodermolide nor vinblastine was able to substitute for Taxol
A549-T12 cells [3]; 48 h, 2 nM Taxol, discodermolide 2 or 6 nM, other drugs as in FIG. 5
  Cell-cycle profile: did not prevent the development of a G2-M-phase block
A549-T12 cells [3]; 48 h without Taxol, then 48 h with drug, discodermolide 0.001-24.0 nM, data not shown
  Reversal of the G2-M-phase block induced by Taxol removal: irreversible
A549-T12 cells [3]; discodermolide 0.001-1.0 nM
  Cell-cycle profile: G2-M-phase block
A549-T12 cells [3]; discodermolide 12-24 nM
  Cell-cycle profile: substantial increase in the hypodiploid population
P-glycoprotein
  Substrate for P-glycoprotein: not substrates for P-glycoprotein
microtubules
  Assembly of microtubules: enhanced the assembly of stable microtubules
[4]
  Solubility relative to Taxol: 100 times more soluble than Taxol
